These results are taken from patent US9309198B2, “N-[3-(2-carboxyethyl)phenyl]piperidin-1-ylacetamide derivatives and use thereof as activators of soluble guanylate cyclase” (Bayer Pharma Aktiengesellschaft, priority 2012, dated 2016).

In test [1] the target is T1, soluble guanylate cyclase (sGC) (Rattus norvegicus, UniProt P20595).
T1 construct: made in house
T1 sequence (P20595 1-619): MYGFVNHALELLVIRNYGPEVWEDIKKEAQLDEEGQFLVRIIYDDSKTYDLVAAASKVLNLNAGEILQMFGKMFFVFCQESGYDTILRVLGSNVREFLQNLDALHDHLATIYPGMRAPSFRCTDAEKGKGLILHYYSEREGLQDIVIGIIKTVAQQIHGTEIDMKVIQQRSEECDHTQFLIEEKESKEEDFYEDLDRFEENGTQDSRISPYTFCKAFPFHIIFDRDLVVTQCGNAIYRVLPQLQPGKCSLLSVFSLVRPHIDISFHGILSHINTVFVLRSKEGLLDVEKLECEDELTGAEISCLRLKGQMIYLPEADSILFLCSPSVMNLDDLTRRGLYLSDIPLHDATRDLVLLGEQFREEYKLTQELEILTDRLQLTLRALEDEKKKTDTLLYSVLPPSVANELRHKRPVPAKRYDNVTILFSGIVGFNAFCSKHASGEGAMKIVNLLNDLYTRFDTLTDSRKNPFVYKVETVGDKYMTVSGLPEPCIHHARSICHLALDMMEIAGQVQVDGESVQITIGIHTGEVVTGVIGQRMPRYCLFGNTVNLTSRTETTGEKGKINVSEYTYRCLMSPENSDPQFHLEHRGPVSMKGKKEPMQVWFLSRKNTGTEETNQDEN
T1 sequence (P19686 1-690 partner): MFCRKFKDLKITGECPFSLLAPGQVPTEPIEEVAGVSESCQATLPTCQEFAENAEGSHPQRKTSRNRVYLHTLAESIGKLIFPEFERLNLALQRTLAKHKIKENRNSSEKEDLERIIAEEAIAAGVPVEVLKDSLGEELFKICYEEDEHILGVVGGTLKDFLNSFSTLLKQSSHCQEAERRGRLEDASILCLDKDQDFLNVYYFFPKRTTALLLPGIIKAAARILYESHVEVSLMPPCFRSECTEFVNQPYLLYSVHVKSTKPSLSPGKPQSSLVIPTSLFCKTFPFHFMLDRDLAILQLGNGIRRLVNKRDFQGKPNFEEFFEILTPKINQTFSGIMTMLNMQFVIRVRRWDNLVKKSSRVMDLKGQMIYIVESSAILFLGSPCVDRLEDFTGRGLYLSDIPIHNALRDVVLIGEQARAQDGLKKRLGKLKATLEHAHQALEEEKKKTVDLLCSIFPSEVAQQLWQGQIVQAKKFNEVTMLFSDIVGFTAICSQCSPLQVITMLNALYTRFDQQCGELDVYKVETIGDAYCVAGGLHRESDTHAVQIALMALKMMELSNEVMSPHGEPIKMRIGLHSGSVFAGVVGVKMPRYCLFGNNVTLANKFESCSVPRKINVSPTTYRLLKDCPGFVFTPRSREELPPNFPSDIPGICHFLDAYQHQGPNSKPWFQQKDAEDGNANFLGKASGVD
The test is described as follows: Stimulation of sGC enzyme activity (PPi detection, luciferase luminescence). In kind it is biochemical. The settings on record: for EC50: read-out: EC50 (half-maximal effective concentration), activating action at the sGC enzyme in vitro. As for the experimental part: B-3. Stimulation of sGC Enzyme Activity
Soluble guanylate cyclase (sGC) converts on stimulation GTP into cGMP and pyrophosphate (PPi). PPi is detected with the aid of the assay described below. The signal produced in the assay increases as the reaction progresses and serves as a measure of the sGC enzyme activity under the given stimulation.
To carry out the assay, 29 μl of enzyme solution [0-10 nM soluble guanylate cyclase (prepared according to Hönicka et al., J. Mol. Med. 77, 14-23 (1999)) in 50 mM TEA, 2 mM MgCl2, 0.1% BSA (fraction V), 0.005% Brij®, pH 7.5] are initially introduced into a microplate, and 1 μl of the substance to be tested (as a serially diluted solution in DMSO) is added. The mixture is incubated at room temperature for 10 min. Then 20 μl of detection mix [1.2 nM Firefly Luciferase (Photinus pyralis luciferase, Promega), 29 μM dehydroluciferin (prepared according to Bitler & McElroy, Arch. Biochem. Biophys. 72, 358 (1957)), 122 μM luciferin (Promega), 153 μM ATP (Sigma) and 0.4 mM DTT (Sigma) in 50 mM TEA, 2 mM MgCl2, 0.1% BSA (fraction V), 0.005% Brij®, pH 7.5] are added. The enzyme reaction is started by adding 20 μl of substrate solution [1.25 mM guanosine 5′-triphosphate (Sigma) in 50 mM TEA, 2 mM MgCl2, 0.1% BSA (fraction V), 0.005% Brij®, pH 7.5] and measured continuously in a luminometer. The extent of the stimulation by the substance to be tested can be determined relative to the signal of the unstimulated reaction.
The activation of haem-free guanylate cyclase is examined by addition of 25 μM of 1H-1,2,4-oxadiazolo[4,3-a]quinoxalin-1-one (ODQ) to the enzyme solution and subsequent incubation for 30 minutes and compared to the stimulation of the native enzyme.

Test [2] concerns the target T2, recombinant guanylate cyclase reporter cell line (sGC, CHO reporter cell) (Rattus norvegicus, UniProt P20595).
T2 construct: expressed in transfected cells; host or cells: CHO reporter cell line
T2 sequence (P20595 1-619): T1 sequence (P20595 1-619)
T2 sequence (P19686 1-690 partner): T1 sequence (P19686 1-690 partner)
Description: Effect on a recombinant guanylate cyclase reporter cell line (CHO reporter cell). In kind it is cell-based. Here is the method: B-2. Effect on a Recombinant Guanylate Cyclase Reporter Cell Line The cellular activity of the compounds according to the invention is determined using a recombinant guanylate cyclase reporter cell line, as described in F. Wunder et al., Anal. Biochem. 339, 104-112 (2005).

In test [3] the target is T3, recombinant soluble guanylate cyclase (sGC), haem-free (Rattus norvegicus, UniProt P20595).
T3 construct: made in house
T3 sequence (P20595 1-619): T1 sequence (P20595 1-619)
T3 sequence (P19686 1-690 partner): T1 sequence (P19686 1-690 partner)
Description: Stimulation of recombinant soluble guanylate cyclase (sGC) in vitro, haem-free enzyme. It is filed as biochemical. To be noted: n = 2. Here is the method:
(§1) B-1. Stimulation of Recombinant Soluble Guanylate Cyclase (sGC) In Vitro
The investigations on the stimulation of recombinant soluble guanylate cyclase (sGC) by the compounds according to the invention with and without sodium nitroprusside and with and without the haem-dependent sGC inhibitor 1H-1,2,4-oxadiazolo[4,3-a]quinoxalin-1-one (ODQ) are carried out by the method described in detail in the following literature reference: M. Hoenicka, E. M. Becker, H. Apeler, T. Sirichoke, H. Schroeder, R. Gerzer and J.-P. Stasch, “Purified soluble guanylyl cyclase expressed in a baculovirus/Sf9 system: Stimulation by YC-1, nitric oxide, and carbon oxide”, J. Mol. Med. 77 (1999), 14-23. Haem-free guanylate cyclase is obtained by adding Tween 20 to the sample buffer (final concentration 0.5%).
(§2) Activation of sGC by a test substance is stated as x-fold stimulation of basal activity.

For test [4], the target named is T4, recombinant soluble guanylate cyclase (sGC), haem-containing (Rattus norvegicus, UniProt P20595).
T4 construct: made in house
T4 sequence (P20595 1-619): T1 sequence (P20595 1-619)
T4 sequence (P19686 1-690 partner): T1 sequence (P19686 1-690 partner)
Description: Stimulation of recombinant soluble guanylate cyclase (sGC) in vitro, haem-containing enzyme. In kind it is biochemical. To be noted: for Stimulation (x-times) of haem-containing sGC, Basal: n = 2.
From the text: as §1
Hoenicka, E. M. Becker, H. Apeler, T. Sirichoke, H. Schroeder, R. Gerzer and J.-P. Stasch, “Purified soluble guanylyl cyclase expressed in a baculovirus/Sf9 system: Stimulation by YC-1, nitric oxide, and carbon oxide”, J. Mol. Med. 77 (1999), 14-23. Haem-free guanylate cyclase is obtained by adding Tween 20 to the sample buffer (final concentration 0.5%).
as §2

Each structure is given as a SMILES string.

`CC1CCN([C@@H](C(=O)Nc2cc([C@H](C)CC(=O)O)ccc2Cl)[C@@H](C)C(F)(F)F)CC1` (single isomer, unassigned) [Example 48]: in test [1], the “MEC (minimum effective concentration), activating action at the sGC enzyme in vitro” value (shortened to “MEC … at the sGC enzyme in vitro”) was 1.1 nM and the EC50 is 0.033 µM. Further, the “MEC (minimum effective concentration), sGC-activating activity in the CHO reporter cell in vitro” value (“MEC … in the CHO reporter cell in vitro” below) in test [2] was 3 nM.

Regarding `CC1CCN(C(C(=O)Nc2cc(CC3(C(=O)O)CC3)ccc2F)C(C)C(F)(F)F)CC1` (single isomer, unassigned; (+)) [Example 36, (+)-1-(4-Fluoro-3-{[4,4,4-trifluoro-3-methyl-2-(4-methylpiperidin-1-yl)butanoyl]amino}benzyl)cyclopropanecarboxylic acid], in test [1], the “MEC … at the sGC enzyme in vitro” value was found to be 3 nM and the EC50 came to 0.025 µM. The “MEC … in the CHO reporter cell in vitro” value in test [2] is 2.3 nM.

For `C[C@H]([C@H](C(=O)Nc1cc(CCC(=O)O)ccc1F)N1CCC(C2CC2)CC1)C(F)(F)F` [Example 18], in test [1], the “MEC … at the sGC enzyme in vitro” value worked out at 6.9 nM and the EC50 was 0.54 µM. Besides, in test [2], the “MEC … in the CHO reporter cell in vitro” value is on record as 30 nM.

`C[C@H]([C@H](C(=O)Nc1cc(CC2(C(=O)O)CC2)ccc1Cl)N1CCC2(CC1)CC2)C(F)(F)F` [Example 25, 1-(3-{[(2R,3R)-2-(6-Azaspiro[2.5]oct-6-yl)-4,4,4-trifluoro-3-methylbutanoyl]amino}-4-chlorobenzyl)cyclopropanecarboxylic acid]: the “MEC … at the sGC enzyme in vitro” value in test [1] came out at 2.2 nM. The EC50 in test [1] is 0.015 µM. Besides, the “Stimulation (x-times) of haem-free sGC, Basal” value is recorded as 1.9 ± 0.8 x-times in test [3] (0.01 μM Example 25), 2.4 ± 0.8 x-times in test [3] (0.1 μM Example 25), 7.3 ± 3.6 x-times in test [3] (1.0 μM Example 25) and 26.6 ± 7.3 x-times in test [3] (10 μM Example 25). Also, in test [2], the “MEC … in the CHO reporter cell in vitro” value is on record as 1 nM. Besides, the “Stimulation (x-times) of haem-containing sGC, +0.01 μM DEA/NO” value in test [4] (0.01 μM Example 25 + 0.01 μM DEA/NO) stood at 11.4 ± 3.9 x-times; in test [4] (0.1 μM Example 25 + 0.01 μM DEA/NO), 11.9 ± 4.2 x-times; in test [4] (1.0 μM Example 25 + 0.01 μM DEA/NO) it was 12.0 ± 3.9 x-times; in test [4] (10 μM Example 25 + 0.01 μM DEA/NO), 15.1 ± 2.9 x-times. Also, the “Stimulation (x-times) of haem-containing sGC, +10 μM ODQ” value worked out at 2.3 ± 0.1 x-times in test [4] (0.01 μM Example 25 + 10 μM ODQ), 2.7 ± 0.2 x-times in test [4] (0.1 μM Example 25 + 10 μM ODQ), 10.5 ± 2.4 x-times in test [4] (1.0 μM Example 25 + 10 μM ODQ) and 32.5 ± 5.4 x-times in test [4] (10 μM Example 25 + 10 μM ODQ). Besides, the “Stimulation (x-times) of haem-containing sGC, Basal” value in test [4] (0.01 μM Example 25) was 0.9 ± 0.2 x-times; in test [4] (0.1 μM Example 25), 0.9 ± 0.0 x-times; in test [4] (1.0 μM Example 25), 2.8 ± 0.4 x-times; in test [4] (10 μM Example 25), 8.6 ± 0.2 x-times. Also, the “Effect of combination with the NO donor DEA/NO on sGC stimulation” value in test [4] (combination with DEA/NO, haem-containing sGC) is “no synergistic effect”. The “Effect of the haem-dependent sGC inhibitor ODQ on the activity of the sGC activator” value in test [4] (with ODQ, haem-containing sGC) is “not blocked but, in contrast, even enhanced”.

Regarding `CCC1CCN([C@@H](C(=O)Nc2cc(CC3(C(=O)O)CC3)ccc2Cl)[C@@H](C)C(F)(F)F)CC1` [Example 26, 1-(4-Chloro-3-{[(2R,3R)-2-(4-ethylpiperidin-1-yl)-4,4,4-trifluoro-3-methylbutanoyl]amino}benzyl)cyclopropanecarboxylic acid], in test [1], the “MEC … at the sGC enzyme in vitro” value turned out to be 0.8 nM and the EC50 was determined as 0.01 µM. In addition, the “MEC … in the CHO reporter cell in vitro” value in test [2] stood at 1 nM.

Regarding `CC1CCN([C@@H](C(=O)Nc2cc(C[C@H](C)C(=O)O)ccc2Cl)[C@@H](C)C(F)(F)F)CC1` [Example 27], in test [1], the “MEC … at the sGC enzyme in vitro” value is 10.5 nM and the EC50 turned out to be 0.21 µM. In test [2], the “MEC … in the CHO reporter cell in vitro” value is on record as 10 nM.

Take `C[C@H]([C@H](C(=O)Nc1cc(C[C@H](C)C(=O)O)ccc1Cl)N1CCC(C(F)(F)F)CC1)C(F)(F)F` [Example 34]: in test [1], the “MEC … at the sGC enzyme in vitro” value was 10.5 nM and the EC50 is 0.09 µM. For the same molecule, the “MEC … in the CHO reporter cell in vitro” value in test [2] was determined as 10 nM.

`CC1CCN([C@@H](C(=O)Nc2cc(CC3(C(=O)O)CC3)ccc2Cl)[C@@H](C)C(F)(F)F)CC1` [Example 51, 1-(4-Chloro-3-{[(2R,3R)-4,4,4-trifluoro-3-methyl-2-(4-methylpiperidin-1-yl)butanoyl]amino}benzyl)cyclopropanecarboxylic acid]: the “MEC … at the sGC enzyme in vitro” value in test [1] worked out at 1.2 nM. Further, the “MEC … in the CHO reporter cell in vitro” value in test [2] is reported as 1 nM.
